Results reported in paper PMC4853715, “Design, Synthesis and Antitumor Activity of Novel link-bridge and B-Ring Modified Combretastatin A-4 (CA-4) Analogues as Potent Antitubulin Agents” (Scientific Reports, 2016).

Experiments:
Bovine brain tubulin = experiment: Effects on tubulin polymerization (turbidimetric assembly); assay type: biochemical; conditions: 10 μM tubulin, 30 °C, 20 min incubation; read-out: Tubulin inhibition IC50
Protocol: Bovine brain tubulin was purified as described previously. To evaluate the effect of the compounds on tubulin assembly in vitro, compounds of varying concentrations were preincubated with 10 μM tubulin in glutamate buffer at 30 °C and then cooled to 0 °C. After addition of GTP, the mixtures were transferred to 0 °C cuvettes in a recording BioTek Synergy 4 multifunction microplate spectrophotometer and warmed up to 30 °C and the assembly of tubulin was observed turbidimetrically (TU660, USA).

SSC-4 = experiment: MTT assay, antiproliferative activity; assay type: cell-based; conditions: Homo sapiens; SSC-4, MTT, 48 h, ± SD
Protocol: (§1) The in vitro anticancer activities of the prepared compounds against HepG2, Hela, MCF-7, A549, HT-29 and SSC-4 cell lines were evaluated as described in the literature. Target tumor cells were grown to log phase in DMEM medium supplemented with 10% fetal bovine serum. After reaching a dilution of 1 × 10^5 cells Ml^−1 with the medium, 100 μL of the obtained cell suspension was added to each well of 96-well culture plates. Subsequently, incubation was performed at 37 °C in 5% CO2 atmosphere for 12 h before the cytotoxicity assessment. Tested samples at preset concentrations were added to 6 wells with CA-4 being employed as a positive reference. After 48 h exposure period, 25 μL of PBS containing 2.5 mg mL^−1 of MTT (Sigma, USA) was added to each well. After 4 h, the medium was replaced by 150 μL DMSO to dissolve the purple formazan crystals produced. The absorbance at 570 nm of each well was measured with Synergy™ 2 Multi-Mode Microplate Reader. Cell viability (%) was calculated using the following equation: cell viability (%) = (Atreatment/Acontrol) × 100%. The data represented the mean of three independent experiments in triplicate and were expressed as means ± SD.

Hela = experiment: MTT assay, antiproliferative activity; assay type: cell-based; conditions: Homo sapiens, 48 h, ± SD
Protocol: as §1

HT-29 = experiment: MTT assay, antiproliferative activity; assay type: cell-based; conditions: Homo sapiens; HT-29, MTT, 48 h, ± SD
Protocol: as §1

HepG2 = experiment: MTT assay, antiproliferative activity; assay type: cell-based; conditions: Homo sapiens, 48 h, ± SD
Protocol: as §1

A549 = experiment: MTT assay, antiproliferative activity; assay type: cell-based; conditions: Homo sapiens, 48 h, ± SD
Protocol: as §1

MCF-7 = experiment: MTT assay, antiproliferative activity; assay type: cell-based; conditions: Homo sapiens, MCF7; MCF-7, MTT, 48 h, ± SD
Protocol: as §1

[1] = system: interphase microtubules of A549 cells; experiment: Confocal microscopy assay of microtubule morphology; assay type: cell-based, human; conditions: A549, 1.0 μM, 48 h
Protocol: After incubating for 48 h, A549 cells were washed with PBS for three times and fixed with 4% paraformaldehyde for 20 min, permeabilized with cold methanol for another 10 min. After that, the cells were blocked with 5% BSA for 1 h. Subsequently, the cells were washed with PBS, and incubated with anti-tubulin antibody in 3% BSA (1:200 Cytoskeleton, Inc.) overnight at 4 °C. After being washed with PBS for three times, each cover slip was added 200 μL of Cy3-labeled goat anti-mouse IgG (H + L) in 3% BSA (1:500, Cytoskeleton, Inc.) and incubated for 1 h at room temperature. At last, A549 cells was stained with 200 μL of DAPI for 5 min and observed under an confocal microscope (Olympus, USA).

A549 xenograft tumor = experiment: In vivo anti-tumor activity, A549 xenograft; set-up: species or system BALB/c nude mice; conditions: CA-4P group, 30 mg/kg or 15 mg/kg
Protocol: Mice were subcutaneously inoculated with injections of 5.0 × 10^6 cells/nude mice. After 12–14 days, tumor sizes were determined using micrometer calipers, and then nude mice with similar tumor volume (~100 mm^3, eliminate mice with tumors that are too large or too small) were randomly divided them into four groups (with six nude mice/group). […] Both drugs, as well as the vehicle control, were administered every other day for the entire period of observation.
Male BALB/c nude mice, five weeks old and weighing 18–22 g, were supplied by Shanghai Laboratory Animal Limited Company. The mice were raised in air-conditioned rooms under controlled lighting (12 h light-dark cycle at 24 °C) and were fed with standard laboratory food and water ad libitum. Before injection into the mice, the A549 cells were harvested by trypsinization and washed three times with cold serum-free medium and then injected in a total volume of 0.1 mL using a 1 mL latex-free syringe (BD) within 30 min of harvest. Mice were inoculated subcutaneously with A549 cells (5.0 × 10^6) on their shoulders. […] The control group received 0.9% normal saline. Tumor size was measured once every 2 days in two per-pendicular dimensions with Vernier calipers and converted to tumor volume (TV) using the formula: (ab^2)/2, where a and b refer to the longer and shorter dimensions, respectively. The body weight of the animals was measured twice a week to assess toxicity of the treatments at the same time as the tumor dimension measurement and the mortality was monitored daily. After the treatments for eight weeks, the animals were euthanized by cervical dislocation. This study conformed to the Guide for the Care and Use of Laboratory Animals as published by the US National Institutes of Health and was approved by the Institutional Ethics Review Board of Nanjing University.

[2] = system: Tubulin isolated from porcine brain tissue; experiment: Tubulin polymerization assay (kit, absorbance 340 nm); assay type: biochemical; conditions: 8.0 μM, 37 °C
Protocol: Tubulin polymerization was determined with the tubulin polymerization assay kit (Cytoskeleton, Denver, CO which was purchased from Cytoskeleton, Beyotime, China. Tubulin isolated from porcine brain tissue was used in this commercial kit.) It is based on the principal that light is scattered by microtubules to an extent that is proportional to the concentration of the microtubule polymer. Compounds that interact with tubulin will alter the polymerization of tubulin, and this can be detected using a spectrophotometer. Tubulin polymerization dynamics was monitored through measuring the change of absorbance at 340 nm every 2 min for 30 min at 37 °C on a spectrophotometer (Perkin-Elmer).

[3] = target: colchicine-binding site of tubulin; experiment: [3H] Colchicine-tubulin binding assay; conditions: 37 °C, 60 min; read-out: IC50, competition with [3H]colchicine binding to tubulin
Protocol: One micromolar radiolabeled colchicine [ring C, Methoxy-^3H] (Perkin-Elmer), 1% DMSO and various concentrations of test compounds in 50 μL G-PEM buffer containing 80 mmol/L PIPES (pH 6.8), 1 mmol/L EGTA, 1 mmol/L MgCl2 and 1 mmol/L GTP, and 5% glycerol were incubated with […] (>99% pure,; Cytoskeleton, Inc.; 0.2 mg/mL) at 37 °C for 60 min. The binding solutions were filtered through a stack of 2 DEAE-cellulose filters and washed twice. The radioactivity in the filtrates was determined by liquid scintillation spectrometry (Perkin-Elmer Wallac). Nonlinear regression was used to analyze the data using GraphPad Prism.

[4] = system: polymerized tubulin in A549 cells; experiment: Flow cytometry of extracellular polymerized tubulin; assay type: cell-based, human; conditions: A549, 1 μM, 48 h
Protocol: Then, cells were harvested, washed once with PBS and blocked with 1% BSA for 30 min on ice, then were centrifuged (2800 rpm at 4 °C for 5 minutes) to remove supernatant. After that, cells were incubated with β-tubulin antibody (AT819, Beyotime, China) for 1 h on ice and were centrifuged (2800 rpm at 4 °C for 5 minutes) to remove supernatant. Next, cells were incubated with CY5.5-linked anti-rabbit IgG (A7016, Beyotime, China) on ice for 1 h and were also centrifuged (2800 rpm at 4 °C for 5 minutes) to remove supernatant. Finally, cells were then resuspended in PBS and the expression level of polymerized tubulin was analysed by flow cytometry (BD, USA).

SMILES	IC50 (Bovine brain tubulin)	IC50 (SSC-4)	IC50 (Hela)	IC50 (HT-29)	IC50 (HepG2)	IC50 (A549)	IC50 (MCF-7)	microtubule morphology [1]	tumor growth reduction versus vehicle at end of observation (A549 xenograft tumor; every other day)	average weight of the excised tumors (A549 xenograft tumor; control group 1.802 g)	tubulin polymerization (in words) [2]	IC50 [3]	microtubule assembly (polymerized tubulin, curve shift versus control) [4]
COc1cc(NC(=O)c2cn(C)c3ccccc23)cc(OC)c1OC [Compound 16]	46.8 µM	45.5 ± 2.6 µM	26.8 ± 6.81 µM	46.4 ± 2.83 µM	17.5 ± 1.46 µM	17.6 ± 1.9 µM	27.4 ± 2.41 µM						
CCCn1cc(C(=O)N/N=C/c2cc(OC)c(OC)c(OC)c2)c2ccccc21 [Compound 6]	55.7 µM	79.9 ± 2.78 µM	56.9 ± 4.89 µM	70 ± 3.76 µM	39 ± 3.23 µM	9.89 ± 1.16 µM	28.9 ± 3.23 µM						
COc1cc2c(c(OC)c1OC)-c1ccc(OC)c(=O)cc1[C@@H](NC(C)=O)CC2 [colchicine]								depolymerization and solubilization					
CCCn1cc(/C=C\C(=O)c2cc(OC)c(OC)c(OC)c2)c2ccccc21 [Compound 12]	> 200 µM	90 ± 9.98 µM	67.9 ± 4.47 µM	78.9 ± 3.51 µM	53.9 ± 2.81 µM	37.9 ± 3.61 µM	69.8 ± 5.43 µM						
CCn1cc(/C=C\C(=O)c2cc(OC)c(OC)c(OC)c2)c2ccccc21 [Compound 11]	125 µM	57.8 ± 4.67 µM	34.2 ± 1.19 µM	49.9 ± 6.98 µM	27.8 ± 2.23 µM	27.9 ± 6.71 µM	45.5 ± 5.67 µM						
COc1cc(C(=O)/C=C\c2cn(C)c3ccccc23)cc(OC)c1OC [Compound 10]	49.9 µM	43.2 ± 3.3 µM	23.9 ± 5.89 µM	44.5 ± 2.87 µM	19.6 ± 1.98 µM	12.1 ± 1.2 µM	29.9 ± 3.21 µM						
COc1cc(/C=N/NC(=O)c2cn(C)c3ccccc23)cc(OC)c1OC [Compound 4]	14.8 µM	43.2 ± 3.98 µM	8.45 ± 1.87 µM	26.7 ± 1.89 µM	2.43 ± 0.23 µM	0.29 ± 0.04 µM	3.21 ± 0.76 µM						
COc1cc(C(=O)/C=C\c2cn(Cc3ccccc3)c3ccccc23)cc(OC)c1OC [Compound 13]	24.8 µM	25.7 ± 2.78 µM	4.78 ± 1.43 µM	34.7 ± 5.34 µM	2.98 ± 0.34 µM	2.78 ± 0.92 µM	4.54 ± 0.96 µM						
COc1ccc(/C=C\c2cc(OC)c(OC)c(OC)c2)cc1OP(=O)(O)O [CA-4P, fosbretabulin, reference compound]									39%	1.102 g			
COc1ccc(/C=C\c2cc(OC)c(OC)c(OC)c2)cc1O [CA-4, combretastatin A-4]	[…]	27.2 ± 1.78 µM	5.52 ± 0.82 µM	15.6 ± 0.06 µM	0.46 ± 0.07 µM	0.13 ± 0.02 µM	0.81 ± 0.11 µM	disorganized interphase microtubules			nearly completely blocked	4.96 µM	[…]
CCn1cc(C(=O)N/N=C/c2cc(OC)c(OC)c(OC)c2)c2ccccc21 [Compound 5]	23.4 µM	55.2 ± 3.48 µM	23.8 ± 2.23 µM	56.8 ± 2.1 µM	10.6 ± 1.98 µM	1.18 ± 0.11 µM	14.2 ± 1.11 µM						
COc1cc(NC(=O)c2cn(Cc3ccccc3)c3ccccc23)cc(OC)c1OC [Compound 19]	19.9 µM	29.5 ± 3.42 µM	5.74 ± 1.06 µM	32.7 ± 3.31 µM	3.68 ± 0.36 µM	2.69 ± 0.4 µM	3.61 ± 0.46 µM						
CC(=O)O[C@H]1C(=O)[C@@]2(C)[C@H]([C@H](OC(=O)c3ccccc3)[C@]3(O)C[C@H](OC(=O)[C@H](O)[C@@H](NC(=O)c4ccccc4)c4ccccc4)C(C)=C1C3(C)C)[C@]1(OC(C)=O)CO[C@@H]1C[C@@H]2O [paclitaxel]								substantial stabilization of microtubules					
CCCn1cc(C(=O)Nc2cc(OC)c(OC)c(OC)c2)c2ccccc21 [Compound 18]	> 200 µM	90.3 ± 6.76 µM	77.4 ± 5.78 µM	82.2 ± 3.7 µM	62.8 ± 3.65 µM	40.2 ± 4.41 µM	59.8 ± 3.43 µM						
CCn1cc(C(=O)Nc2cc(OC)c(OC)c(OC)c2)c2ccccc21 [Compound 17]	> 200 µM	47.2 ± 4.33 µM	35.7 ± 2.34 µM	39.4 ± 3.45 µM	28.3 ± 3.33 µM	26.5 ± 6.2 µM	48.3 ± 6.58 µM						
